Laboratory results: US20260076955A1, “JOINT CAVITY DRUG ADMINISTRATION METHOD, AND USE THEREOF” (TENNOR THERAPEUTICS (SUZHOU) LIMITED, priority 2023, published 2026)
In brackets after ≈: the same amount, converted by molar mass. Where two headings read alike, the source gives them in different places. Marks after values point to notes of the source that are not given here.

Assays:
[1] = system: methicillin-resistant Staphylococcus aureus (MRSA, ATCC43300 strain); test: Rat PJI model: CFU count, scanning electron microscopy of prosthesis, H&E pathology of synovium; type: in vivo; conditions: for Tissue bacterial load in bone tissue / Tissue bacterial load in prosthesis / Tissue bacterial load in soft tissue: QD × 14 days, sample D 21
Excerpt: In this example, rats aged about 17 weeks were used. Before the start of drug administration treatment, each rat underwent an aseptic surgery to insert an artificial prosthesis into the knee joint, followed by an intraarticular inoculation of methicillin-resistant Staphylococcus aureus (MRSA, ATCC43300 strain) at the surgical site.

[2] = system: methicillin-sensitive Staphylococcus aureus (MSSA, ATCC6538 strain); test: Mouse metal implant joint infection model, colony counts from pin and femur; type: in vivo; conditions: for Femur Mean Log10 CFU / Log10 CFU Reduction vs. day 14 control, Femur / Log10 CFU Reduction vs. day 14 control, Pin / Pin Mean Log10 CFU: day 14
Excerpt: In this example, female mice aged 8-10 weeks were used and randomly grouped. Before the start of drug administration treatment, each mouse underwent a surgery involving the placement of a metal implant into the femoral-tibial joint and an intraarticular inoculation of methicillin-sensitive Staphylococcus aureus (MSSA, ATCC6538 strain) at the surgical site. Therapeutic agents were formulated as follows: • (1) compound of formula (I): when used as a therapeutic agent for intraarticular injection (IA), the compound was dissolved in 5% dextrose in water (D5W) and formulated to the required concentrations; when used as a therapeutic agent for intraperitoneal injection (IP), the compound was dissolved in a solvent system of ethanol/NaHCO3/6% Cremophor and formulated to the required concentrations; (2) vancomycin: the drug was dissolved in sterile water for injection (WFI) and formulated to the required concentration to obtain a therapeutic agent for intraarticular injection. [table] Samples were obtained from the surgical and inoculation sites of the mice, and colony counts are performed on the agar plates. The number of colonies converted to CFU/tissue by multiplying the number of colonies by the volume of the homogenate spotted and the dilution at which the colonies were counted (5-50 colonies/spot). The resulting value was expressed as log10 CFU/tissue and used to calculate the mean and standard deviations (the results are shown in Table 1).

MRSA ATCC43300 strain = test: MIC (minimum inhibitory concentration) determination; type: cell-based; conditions: Staphylococcus aureus, read-out: MIC (minimum inhibitory concentration)
Staphylococcus aureus [3] = test: MIC90; type: cell-based; conditions: against Staphylococcus aureus
Staphylococcus aureus [4] = test: Biofilm bactericidal activity MBBC90; type: cell-based; conditions: against Staphylococcus aureus
[5] = system: Staphylococcus epidermidis; test: MIC90; type: cell-based; conditions: against Staphylococcus epidermidis
[6] = Pharmacokinetics after single intraarticular injection in beagle dogs (plasma and synovial fluid); type: in vivo; conditions: both sexes, dog, single intraarticular injection 3 mg/kg; for AUC(0-t) / Cmax / Tmax / half-life: mean
Experimental: In this example, an experiment with an animal model of male and female beagle dogs was used to evaluate the pharmacokinetic behavior after a single intraarticular injection of the compound of formula (I) in the knee. A total of 6 beagle dogs (3 males and 3 females) were used for this experiment. The experimental animals received a single intraarticular injection of 3 mg/kg of the compound of formula (I) in the left joint, and a single intraarticular injection of 0.1 mL/kg of the vehicle (injection solution of 5% dextrose in water) in the right joint. From the experimental animals, plasma samples were collected before administration (0 hour) and at 0.25 hour (15 minutes), 3 hours, 9 hours, 12 hours, 24 hours, 36 hours, 48 hours, and 72 hours after administration, and left knee synovial fluid samples were collected at 12 hours, 36 hours, and 60 hours after administration. The concentrations of the compound of formula (I) in the plasma and synovial fluid samples were determined using high-performance liquid chromatography-tandem mass spectrometry (LC-MS/MS).

[7] = system: Staphylococcus epidermidis; test: Biofilm bactericidal activity MBBC90; type: cell-based; conditions: against Staphylococcus epidermidis
[8] = 45 mg/kg, 25 μL IA, QD × 7 days
[9] = group T2.5, 2.5 mg/kg intraarticular
[10] = group T5, 5 mg/kg intraarticular
[11] = group T10, 10 mg/kg intraarticular
[12] = 5 mg/kg, 0.2 mL IP, BID × 7 days
[13] = 15 mg/kg, 0.2 mL IP, BID × 7 days
[14] = 15 mg/kg, 25 μL IA, QD × 7 days
[15] = 45 mg/kg, 0.2 mL IP, BID × 7 days
[16] = intraarticular administration, all IA dose groups (5-45 mg/kg)

## CN[C@H](CC(C)C)C(=O)N[C@H]1C(=O)N[C@@H](CC(N)=O)C(=O)N[C@H]2C(=O)N[C@H]3C(=O)N[C@H](C(=O)N[C@H](C(=O)O)c4cc(O)cc(O)c4-c4cc3ccc4O)[C@H](O)c3ccc(c(Cl)c3)Oc3cc2cc(c3O[C@@H]2O[C@H](CO)[C@@H](O)[C@H](O)[C@H]2O[C@H]2C[C@](C)(N)[C@H](O)[C@H](C)O2)Oc2ccc(cc2Cl)[C@H]1O [Vancomycin, reference compound]
[1]; group Van, 44 mg/kg
  Tissue bacterial load in bone tissue: 11733 ± 8583 CFU
  Tissue bacterial load in prosthesis: 1783 ± 1136 CFU
  Tissue bacterial load in soft tissue: 1050 ± 1174 CFU
[1]; vancomycin group, 44 mg/kg
  pathological H&E staining of the synovial soft tissue (FIG. 2B): a significant reduction in inflammatory cell infiltration in the synovium
[1]; vancomycin treatment group, 44 mg/kg
  scanning electron microscopy observation of prosthesis (FIG. 2A): a relatively large number of bacteria still remained
[2]; [8]
  Femur Mean Log10 CFU: 6.08 Log10 CFU
  Log10 CFU Reduction vs. day 14 control, Femur: −0.80 Log10 CFU
  Log10 CFU Reduction vs. day 14 control, Pin: −1.28 Log10 CFU
  Pin Mean Log10 CFU: 3.49 Log10 CFU
MRSA ATCC43300 strain
  MIC: 0.5 µg/mL (≈ 0.345 µM)

## CO[C@H]1/C=C/O[C@@]2(C)Oc3c(C)c(O)c4c(O)c(c(/C=N/N5CCC(N(C)C6([C@@H]7CCN(c8c(F)cn9c(=O)c(C(=O)O)cc(C%10CC%10)c9c8C)C7)CC6)CC5)c(O)c4c3C2=O)NC(=O)/C(C)=C\C=C\[C@H](C)[C@H](O)[C@@H](C)[C@@H](O)[C@@H](C)[C@H](OC(C)=O)[C@@H]1C [compound of formula (I)]
[1]; [9]
  Tissue bacterial load in bone tissue: 7083 ± 6280 CFU
  Tissue bacterial load in prosthesis: 550 ± 207 CFU
  Tissue bacterial load in soft tissue: 9717 ± 1387 CFU
[1]; [10]
  Tissue bacterial load in bone tissue: 1383 ± 1068 CFU
  Tissue bacterial load in prosthesis: 0 *** CFU
  Tissue bacterial load in soft tissue: 5433 ± 3194 CFU
[1]; [11]
  Tissue bacterial load in bone tissue: 2400 ± 1655 CFU
  Tissue bacterial load in prosthesis: 0 *** CFU
  Tissue bacterial load in soft tissue: 1517 ± 1011 CFU
[1]; high-dose group, 10 mg/kg
  pathological H&E staining of the synovial soft tissue (FIG. 2B): a significant reduction in inflammatory cell infiltration in the synovium
  scanning electron microscopy observation of prosthesis (FIG. 2A): individual cocci embedded therein
[1]; low-dose group, 2.5 mg/kg
  scanning electron microscopy observation of prosthesis (FIG. 2A): the formation of a relatively large number of colonies could still be observed
[1]; medium-dose group, 5 mg/kg
  scanning electron microscopy observation of prosthesis (FIG. 2A): individual bacteria still present
Staphylococcus aureus [3]
  MIC90: 0.015 µg/mL
Staphylococcus aureus [4]
  biofilm bactericidal activity MBBC90: 2000 ng/mL
[2]; [12]
  Femur Mean Log10 CFU: 6.51 Log10 CFU
  Log10 CFU Reduction vs. day 14 control, Femur: −0.37 Log10 CFU
  Log10 CFU Reduction vs. day 14 control, Pin: −0.51 Log10 CFU
  Pin Mean Log10 CFU: 4.26 Log10 CFU
[2]; 5 mg/kg, 25 μL IA, QD × 7 days
  Femur Mean Log10 CFU: 5.17 Log10 CFU
  Log10 CFU Reduction vs. day 14 control, Femur: −1.71 Log10 CFU
  Log10 CFU Reduction vs. day 14 control, Pin: −2.50 Log10 CFU
  Pin Mean Log10 CFU: 2.27 Log10 CFU
[2]; [13]
  Femur Mean Log10 CFU: 5.33 Log10 CFU
  Log10 CFU Reduction vs. day 14 control, Femur: −1.55 Log10 CFU
  Log10 CFU Reduction vs. day 14 control, Pin: −2.25 Log10 CFU
  Pin Mean Log10 CFU: 2.52 Log10 CFU
[2]; [14]
  Femur Mean Log10 CFU: 3.76 Log10 CFU
  Log10 CFU Reduction vs. day 14 control, Femur: −3.12 Log10 CFU
  Log10 CFU Reduction vs. day 14 control, Pin: −2.54 Log10 CFU
  Pin Mean Log10 CFU: 2.23 Log10 CFU
[2]; [15]
  Femur Mean Log10 CFU: 3.42 Log10 CFU
  Log10 CFU Reduction vs. day 14 control, Femur: −3.46 Log10 CFU
  Log10 CFU Reduction vs. day 14 control, Pin: −2.72 Log10 CFU
  Pin Mean Log10 CFU: 2.05 Log10 CFU
[2]; [8]
  Femur Mean Log10 CFU: 3.46 Log10 CFU
  Log10 CFU Reduction vs. day 14 control, Femur: −3.42 Log10 CFU
  Log10 CFU Reduction vs. day 14 control, Pin: −2.72 Log10 CFU
  Pin Mean Log10 CFU: 2.05 Log10 CFU
[2]; [16]
  mean femur colony counts lower than those in the untreated control animals: 1.71-3.42 log10 CFU
  mean pin colony counts lower than those in the untreated control animals: 2.5-2.72 logo CFU
[5]
  MIC90: 0.008 µg/mL
MRSA ATCC43300 strain; MRSA ATCC43300 strain
  MIC: 0.032 µg/mL
[6]; plasma
  AUC(0-t): 20.8 ± 7.15 µg·h/mL
  Cmax: 736 ± 247 ng/mL
  Tmax: 24 h
  half-life: 12 h
[6]; synovial fluid
  AUC(0-t): 1000 ± 1050 µg·h/mL
  Cmax: 77400 ± 81900 ng/mL
  Tmax: 12 h
  half-life: 6.81 h
[6]; synovial fluid/plasma, read-out: AUC ratio = AUC0-last in synovial fluid/AUC0-last in plasma
  Kp: 46.1
[7]
  biofilm bactericidal activity MBBC90: 250 ng/mL
